Reference: patent publication US8304422B2, “Compositions and methods for inhibition of the JAK pathway” (Rigel Pharmaceuticals, Inc., priority 2007, dated 2012)

Experiments:
[1] = test system: Ramos B-Cell Line Stimulated with IL-4; test: Assay for Ramos B-Cell Line Stimulated with IL-4 (CD23 upregulation, FACS; Example 2); format: cell-based; settings: human Ramos B cells, IL-4 50 units/mL for 20-24 hours, anti-CD23-PE
In short: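 Human Ramos B cells (5×10^4 per point, RPMI with 5% serum) preincubated 1 hour at 37° C with compound or DMSO, then stimulated with IL-4 at 50 units/mL final for 20-24 hours. CD23 upregulation measured by anti-CD23-PE staining and flow cytometry.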

[2] = test system: BaF3 V617F cells; UKE-1; test: Proliferation Assay (Cell Titer-Glo; Example 7); format: cell-based; settings: proliferation 72 hours, inhibit JAK2 activity, cell line (BaF3 V617F or UKE-1) not stated
In short: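 BaF3 V617F cells (RPMI, 10% FBS) and UKE-1 cells (Iscove's DMEM, 10% FBS, 10% equine serum, 1 uM hydrocortisone) were exposed to 3-fold serially diluted compound in duplicate for 72 hours at 37 °C. Viable cell number quantified by Cell Titer-Glo luminescence; IC50 reported.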

Row | IC50 [1] [nM] | IC50 [2] [nM] | SMILES
1 | 116 | 796 | Cc1cnc(Nc2ccc3c(c2)nc(C)n3C)nc1Nc1ccc(CNS(=O)(=O)C2CC2)cc1 [IV-7, N4-(4-cyclopropylsulfonylaminomethyl)phenyl-N2-(1,2-dimethylbenzoimidazol-5-yl)-5-methyl-2,4-pyrimidinediamine]
2 | 704 | 2200 | Cc1cc(C)cc(Nc2ncc(C)c(Nc3cccc(CN(C)S(=O)(=O)C4CC4)c3)n2)c1 [II-40, N4-[3-(N-cyclopropylsulfonyl-N-methyl)aminomethyl]phenyl-N2-(3,5-dimethyl)phenyl-5-methyl-2,4-pyrimidinediamine]
3 | 290 | 2970 | O=S(=O)(NCc1ccc(Nc2nc(Nc3ccc4ccn(CCN5CCOCC5)c4c3)ncc2F)cc1)C1CC1 [III-1, N4-[4-(Cyclopropylsulfonylaminomethyl)phenyl]-5-fluoro-N2-[1-(2-(N-morpholino)ethyl)indol-6-yl]-2,4-pyrimidinediamine]
4 | 49.4 | 5800 | Cc1nc2cc(Nc3ncc(C)c(Nc4ccc(CNS(=O)(=O)C5CC5)cc4)n3)ccc2[nH]1 [III-3, N4-(4-cyclopropylsulfonylaminomethyl)phenyl-5-methyl-N2-(2-methylbenzoimidazol-5-yl)-2,4-pyrimidinediamine]
5 | 327 | 2040 | Cc1cc(C)cc(Nc2ncc(C)c(Nc3ccc(CN(C)S(=O)(=O)C4CC4)cc3)n2)c1 [II-39, N4-[4-(N-cyclopropylsulfonyl-N-methyl)aminomethyl]phenyl-N2-(3,5-dimethyl)phenyl-5-methyl-2,4-pyrimidinediamine]

Second part, the compound before the results:

Row | SMILES | IC50 [1] [nM] | IC50 [2] [nM]
6 | Cc1cnc(Nc2cccc(C(N)=O)c2)nc1Nc1cccc(CN(C)S(=O)(=O)C2CC2)c1 [II-22, N2-(3-aminocarbonyl)phenyl-N4-[3-(N-cyclopropylsulfonyl-N-methyl)aminomethyl]phenyl-5-methyl-2,4-pyrimidinediamine] | 302 | 2690
7 | Cc1cnc(Nc2cccc(C#N)c2)nc1Nc1ccc(CNS(=O)(=O)C2CC2)cc1 [II-34, N2-(3-cyano)phenyl-N4-(4-cyclopropylsulfonylaminomethyl)phenyl-5-methyl-2,4-pyrimidinediamine] | 45.5 | 460
8 | COc1cc(Nc2ncc(F)c(Nc3ccc(CNS(=O)(=O)C4CC4)cc3)n2)cc(OC)c1OC [II-1, N4-(4-cyclopropylsulfonylaminomethyl)phenyl-5-fluoro-N2-(3,4,5-trimethoxy)phenyl-2,4-pyrimidinediamine] | 123 | 405
9 | Cc1cnc(Nc2ccc(C#N)cc2)nc1Nc1cccc(CNS(=O)(=O)C2CC2)c1 [II-25, N2-(4-cyano)phenyl-N4-(3-cyclopropylsulfonylaminomethyl)phenyl-5-methyl-2,4-pyrimidinediamine] | 142 | 2300
10 | Cc1cnc(Nc2cccc(C(N)=O)c2)nc1Nc1ccc(CNS(=O)(=O)C2CC2)cc1 [II-32, N2-(3-aminocarbonyl)phenyl-N4-(4-cyclopropylsulfonylaminomethyl)phenyl-5-methyl-2,4-pyrimidinediamine] | 52.3 | 1530
